What all share (assay): MIC, microdilution broth method (NCCLS)
What all share (format): cell-based
In general terms: Dilution methods test growth across graded concentrations, often in twofold steps.

Assay [1] relates to S. pneumoniae ATCC49619. Conditions: Streptococcus pneumoniae, read-out: MIC Values, D: S. pneumoniae ATCC49619. The method in brief: (§1)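 NCCLS M7-A4 broth microdilution: two-fold drug dilutions in cation-adjusted Mueller-Hinton broth, inoculum approximately 5×10^4 CFU/well. Trays incubated at 35 °C for 16-20 hours. MIC read by comparing growth to compound-free growth controls.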

Assay [2] has as its system E. faecalis ATCC29212. The settings on record: Enterococcus faecalis, read-out: MIC Values, C: E. faecalis ATCC29212. The method in brief: as §1
Assay [3] concerns H. influenzae ATCC49247. Conditions: Haemophilus influenzae, read-out: MIC Values, E: H. influenzae ATCC49247. The method in brief:
as §1

For assay [4], the system named is S. aureus ATCC29213. Conditions: Staphylococcus aureus, read-out: MIC Values, B: S. aureus ATCC29213. Put shortly: as §1
Assay [5] relates to E. coli OC2605. Conditions: Escherichia coli. Put shortly:
as §1

Setting [6] is: Table 1, 6-Carbamoyl-3-Acyl Macrolide Derivatives.
Setting [7] is: Table 1, 6-Carbamoyl-3-Acyl Macrolide Derivatives, read-out: MIC Values, A: E. coli OC2605.
The mark [8] stands for this setting: Table 2, 3,6-Dicarbamoyl Macrolide Derivatives.
Where [9] appears, read: Table 2, 3,6-Dicarbamoyl Macrolide Derivatives, read-out: MIC Values, A: E. coil OC2605.

Converted amounts (≈) assume the structure as drawn. Like-named read-outs stand apart in the source and are kept apart here.

Regarding `CC[C@H]1OC(=O)[C@H](C)[C@@H](OC(=O)Cc2cccnc2)[C@H](C)[C@@H](O[C@@H]2O[C@H](C)C[C@H](N(C)C)[C@H]2O)[C@](C)(OC(=O)NC/C=C/c2cncnc2)C[C@@H](C)C(=O)[C@H](C)[C@H]2NC(=O)O[C@@]21C` [Compound 40], the MIC in assay [1] (setting [6]) was 0.12 mg/L (≈ 0.136 µM); in assay [2] (setting [6]) it was 0.5 mg/L (≈ 0.568 µM); in assay [3] (setting [6]), 2 mg/L (≈ 2.27 µM); in assay [4] (setting [6]) it was 1 mg/L (≈ 1.14 µM); in assay [5] (setting [7]) it was greater than 16 mg/L.
The like results for `CC[C@H]1OC(=O)[C@H](C)[C@@H](OC(=O)Cc2cccnc2)[C@H](C)[C@@H](O[C@@H]2O[C@H](C)C[C@H](N(C)C)[C@H]2O)[C@](C)(OC(=O)NC/C=C/c2ccc(-c3ncccn3)cc2)C[C@@H](C)C(=O)[C@H](C)[C@H]2NC(=O)O[C@@]21C` [Compound 4, 3-Pyridineacetic acid, (3aS,4R,7R,8S,9S,10R,11R,13R,15R,15aR)-4-ethyltetradecahydro-3a,7,9,11,13,15-hexamethyl-2,6,14-trioxo-11-[[[[(2E)-3-[4-(2-pyrimidinyl)phenyl]-2-propenyl]amino]carbonyl]oxy]-10-[[3,4,6-trideoxy-3-(dimethylamino)-β-D-xylo-hexopyranosyl]oxy]-2H-oxacyclotetradecino[4,3-d]oxazol-8-yl ester] were, in that order, 0.06 mg/L (≈ 0.0627 µM), 0.25 mg/L (≈ 0.261 µM), 2 mg/L (≈ 2.09 µM), 0.25 mg/L (≈ 0.261 µM) and 8 mg/L (≈ 8.36 µM).
The matching figures for `CC[C@H]1OC(=O)[C@H](C)[C@@H](OC(=O)Cc2ccccn2)[C@H](C)[C@@H](O[C@@H]2O[C@H](C)C[C@H](N(C)C)[C@H]2O)[C@](C)(OC(=O)NC/C=C/c2ccc(C#N)nc2)C[C@@H](C)C(=O)[C@H](C)[C@H]2NC(=O)O[C@@]21C` [Compound 29]: 0.03 mg/L (≈ 0.0331 µM), 0.25 mg/L (≈ 0.276 µM), 2 mg/L (≈ 2.21 µM), 0.5 mg/L (≈ 0.552 µM) and 16 mg/L (≈ 17.7 µM).
The matching figures for `CC[C@H]1OC(=O)[C@H](C)[C@@H](OC(=O)CCc2cccnc2)[C@H](C)[C@@H](O[C@@H]2O[C@H](C)C[C@H](N(C)C)[C@H]2O)[C@](C)(OC(=O)NC/C=C/c2ccc(-c3ncccn3)cc2)C[C@@H](C)C(=O)[C@H](C)[C@H]2NC(=O)O[C@@]21C` [Compound 3]: 0.06 mg/L (≈ 0.0618 µM), 0.25 mg/L (≈ 0.257 µM), 2 mg/L (≈ 2.06 µM), 0.5 mg/L (≈ 0.515 µM) and greater than 16 mg/L.
Turning to `CC[C@H]1OC(=O)[C@H](C)[C@@H](OC(=O)N(CC)CCO)[C@H](C)[C@@H](O[C@@H]2O[C@H](C)C[C@H](N(C)C)[C@H]2O)[C@](C)(OC(=O)NC/C=C/c2ccc(-c3ncccn3)cc2)C[C@@H](C)C(=O)[C@H](C)[C@H]2NC(=O)O[C@@]21C` [Compound 66], the MIC in assay [1] (setting [8]) is 0.25 mg/L (≈ 0.262 µM); in assay [2] (setting [8]) it was 2 mg/L (≈ 2.1 µM); in assay [3] (setting [8]), 16 mg/L (≈ 16.8 µM); in assay [4] (setting [8]), 4 mg/L (≈ 4.2 µM); in assay [5] (setting [9]) it was greater than 16 mg/L.
Turning to `CC[C@H]1OC(=O)[C@H](C)[C@@H](OC(=O)N(C)c2cccnc2)[C@H](C)[C@@H](O[C@@H]2O[C@H](C)C[C@H](N(C)C)[C@H]2O)[C@](C)(OC(=O)NC/C=C/c2ccc(-c3ncccn3)cc2)C[C@@H](C)C(=O)[C@H](C)[C@H]2NC(=O)O[C@@]21C` [Compound 60], the MIC was 0.06 mg/L (≈ 0.0617 µM) in assay [1] (setting [8]); 0.5 mg/L (≈ 0.514 µM) in assay [2] (setting [8]); 4 mg/L (≈ 4.11 µM) in assay [3] (setting [8]); 1 mg/L (≈ 1.03 µM) in assay [4] (setting [8]); greater than 16 mg/L in assay [5] (setting [9]).
The like results for `CC[C@H]1OC(=O)[C@H](C)[C@@H](OC(=O)Nc2ccc(OC)nc2)[C@H](C)[C@@H](O[C@@H]2O[C@H](C)C[C@H](N(C)C)[C@H]2O)[C@](C)(OC(=O)NC/C=C/c2ccc(-c3ncccn3)cc2)C[C@@H](C)C(=O)[C@H](C)[C@H]2NC(=O)O[C@@]21C` [Compound 50] were, in that order, 0.12 mg/L (≈ 0.121 µM), 0.5 mg/L (≈ 0.506 µM), 4 mg/L (≈ 4.05 µM), 1 mg/L (≈ 1.01 µM) and greater than 16 mg/L.
For the compound `CC[C@H]1OC(=O)[C@H](C)[C@@H](OC(=O)CC2CC2)[C@H](C)[C@@H](O[C@@H]2O[C@H](C)C[C@H](N(C)C)[C@H]2O)[C@](C)(OC(=O)NC/C=C/c2ccc(-c3ncccn3)cc2)C[C@@H](C)C(=O)[C@H](C)[C@H]2NC(=O)O[C@@]21C` [Compound 13], the MIC is 0.06 mg/L (≈ 0.0652 µM) in assay [1] (setting [6]); 0.5 mg/L (≈ 0.543 µM) in assay [2] (setting [6]); 8 mg/L (≈ 8.69 µM) in assay [3] (setting [6]); 0.5 mg/L (≈ 0.543 µM) in assay [4] (setting [6]); greater than 16 mg/L in assay [5] (setting [7]).
Take `CC[C@H]1OC(=O)[C@H](C)[C@@H](OC(=O)c2ccccc2)[C@H](C)[C@@H](O[C@@H]2O[C@H](C)C[C@H](N(C)C)[C@H]2O)[C@](C)(OC(=O)NC/C=C/c2cccnc2)C[C@@H](C)C(=O)[C@H](C)[C@H]2NC(=O)O[C@@]21C` [Compound 18]: the MIC in assay [1] (setting [6]) is 0.12 mg/L (≈ 0.139 µM); in assay [2] (setting [6]), 0.5 mg/L (≈ 0.578 µM); in assay [3] (setting [6]), 8 mg/L (≈ 9.25 µM); in assay [4] (setting [6]), 4 mg/L (≈ 4.62 µM); in assay [5] (setting [7]) it was greater than 16 mg/L.
The matching figures for `CC[C@H]1OC(=O)[C@H](C)[C@@H](OC(=O)/C=C/c2cccnc2)[C@H](C)[C@@H](O[C@@H]2O[C@H](C)C[C@H](N(C)C)[C@H]2O)[C@](C)(OC(=O)NC/C=C/c2ccc(-c3ncccn3)cc2)C[C@@H](C)C(=O)[C@H](C)[C@H]2NC(=O)O[C@@]21C` [Compound 6]: 0.12 mg/L (≈ 0.124 µM), 1 mg/L (≈ 1.03 µM), greater than 16 mg/L, 2 mg/L (≈ 2.06 µM) and greater than 16 mg/L.
The matching figures for `CC[C@H]1OC(=O)[C@H](C)[C@@H](OC(=O)Cc2cccnc2)[C@H](C)[C@@H](O[C@@H]2O[C@H](C)C[C@H](N(C)C)[C@H]2O)[C@](C)(OC(=O)NC/C=C/c2ccnc3ccccc23)C[C@@H](C)C(=O)[C@H](C)[C@H]2NC(=O)O[C@@]21C` [Compound 34]: 0.03 mg/L (≈ 0.0323 µM), 0.25 mg/L (≈ 0.269 µM), 2 mg/L (≈ 2.15 µM), 0.5 mg/L (≈ 0.538 µM) and 8 mg/L (≈ 8.6 µM).
The like results for `CC[C@H]1OC(=O)[C@H](C)[C@@H](OC(=O)C(C)C)[C@H](C)[C@@H](O[C@@H]2O[C@H](C)C[C@H](N(C)C)[C@H]2O)[C@](C)(OC(=O)NC/C=C/c2cccnc2)C[C@@H](C)C(=O)[C@H](C)[C@H]2NC(=O)O[C@@]21C` [Compound 17] were, in that order, 0.06 mg/L (≈ 0.0722 µM), 0.25 mg/L (≈ 0.301 µM), 1 mg/L (≈ 1.2 µM), 0.5 mg/L (≈ 0.602 µM) and 16 mg/L (≈ 19.3 µM).
As for `CC[C@H]1OC(=O)[C@H](C)[C@@H](OC(=O)N2CCCC2)[C@H](C)[C@@H](O[C@@H]2O[C@H](C)C[C@H](N(C)C)[C@H]2O)[C@](C)(OC(=O)NC/C=C/c2ccc(-c3ncccn3)cc2)C[C@@H](C)C(=O)[C@H](C)[C@H]2NC(=O)O[C@@]21C` [Compound 62], the MIC in assay [1] (setting [8]) is 0.06 mg/L (≈ 0.0642 µM); in assay [2] (setting [8]), 0.5 mg/L (≈ 0.535 µM); in assay [3] (setting [8]) it was 4 mg/L (≈ 4.28 µM); in assay [4] (setting [8]), 0.5 mg/L (≈ 0.535 µM); in assay [5] (setting [9]), greater than 16 mg/L.
As for `CC[C@H]1OC(=O)[C@H](C)[C@@H](OC(=O)Cc2ccccn2)[C@H](C)[C@@H](O[C@@H]2O[C@H](C)C[C@H](N(C)C)[C@H]2O)[C@](C)(OC(=O)NC/C=C/c2cccnc2)C[C@@H](C)C(=O)[C@H](C)[C@H]2NC(=O)O[C@@]21C` [Compound 20], the MIC stood at 0.03 mg/L (≈ 0.0341 µM) in assay [1] (setting [6]); 0.25 mg/L (≈ 0.284 µM) in assay [2] (setting [6]); 1 mg/L (≈ 1.14 µM) in assay [3] (setting [6]); 0.5 mg/L (≈ 0.568 µM) in assay [4] (setting [6]); 8 mg/L (≈ 9.09 µM) in assay [5] (setting [7]).

(Values after patent publication US6825172B2, “3-descladinosyl-6-O-carbamoyl and 6-O-carbonoyl macrolide antibacterial agents” (Janssen Pharmaceutica, NV, priority 2002, dated 2004).)
